Earlier results in US12115179B2, “Pharmaceutical composition, methods for treating and uses thereof” (Boehringer Ingelheim International GmbH, priority 2009, dated 2024).

Conditions: metformin on its own, in the diabetic

CN(C)C(=N)N=C(N)N [Met, metformin]
average improvement in the HbA1c value: 1.0-1.5%
